The test addresses p110α (Homo sapiens (Human), UniProt P42336). Nature of the test: PI3K lipid kinase activity on lipid micelles (ADP-Glo), p110α. In kind it is biochemical. To be noted: 10 μM ATP. The protocol:
a) Some compounds of formula (I) described herein were assayed in vitro for their ability to inhibit the lipid kinase activity of PI3Ks, by using a non-radioactive method.
In details, His and GST-tagged recombinant proteins (purchased from JenaBioscience—Germany; PI3Kα #PR-335, PI3Kβ #PR-344, PI3Kγ #PR-343, PI3Kδ #PR-345) for each isoform PI3Kα, β, γ and δ, were incubated with 10 μM of ATP, with lipid micells containg the appropriate substrate phosphatidylinositol and the phosphatidilserine, and different concentrations of the formula (I) compounds.
After 30 minutes of incubation at room temperature, the amount of ADP produced from ATP following the activation of kinase was measured with a luminescent kinase assay, ADP-Glo™ Kinase Assay (purchased from Promega—USA #V9101).
The luminescent signal positively correlates with the formed ADP and, therefore, with the kinase activity.
Inhibition of PI3K lipid kinase activity is achieved when the amount of ADP—that is correlated with the PI3K activity—in the presence of the assayed compound of formula (I) is lower than the amount detected in the control samples.
For each assayed formula (I) compound, a specific IC50 for each class I PI3K isoform was measured.
The IC50 of a formula (I) compound is the concentration of the compound able to inhibit by 50% the kinase activity of each PI3K isoform.
The IC50 was determined by constructing a dose-response curve and examining the inhibitory effect of different concentrations of the assayed formula (I) compounds on the ADP production.
To evaluate the ability of each compound of formula (I) to inhibit the lipid kinase activity of each PI3K isoform, PI3Kα, β, γ and δ recombinant proteins (30 ng for each assay) were incubated for about 30 minutes with different concentrations of compounds.
Lipid micelles were formed by sonicating a mixture of 1 mg of phosphatidylinositol and 1 mg of phosphatidylserine. Lipid micelles were use as substrate for the PI3K lipid kinase activity. The reaction was started by adding 10 μM of ATP and 10 μM of micelles to each reaction.
After 30 minutes of incubation at room temperature, the reaction was stopped and the amount of ADP produced was measured by using the ADP-glo assay (see above).
On the technique in general: ADP-Glo first removes unused ATP, then detects ADP through luciferase.

Structures are written as SMILES.

Sequence of p110α (P42336 whole entry): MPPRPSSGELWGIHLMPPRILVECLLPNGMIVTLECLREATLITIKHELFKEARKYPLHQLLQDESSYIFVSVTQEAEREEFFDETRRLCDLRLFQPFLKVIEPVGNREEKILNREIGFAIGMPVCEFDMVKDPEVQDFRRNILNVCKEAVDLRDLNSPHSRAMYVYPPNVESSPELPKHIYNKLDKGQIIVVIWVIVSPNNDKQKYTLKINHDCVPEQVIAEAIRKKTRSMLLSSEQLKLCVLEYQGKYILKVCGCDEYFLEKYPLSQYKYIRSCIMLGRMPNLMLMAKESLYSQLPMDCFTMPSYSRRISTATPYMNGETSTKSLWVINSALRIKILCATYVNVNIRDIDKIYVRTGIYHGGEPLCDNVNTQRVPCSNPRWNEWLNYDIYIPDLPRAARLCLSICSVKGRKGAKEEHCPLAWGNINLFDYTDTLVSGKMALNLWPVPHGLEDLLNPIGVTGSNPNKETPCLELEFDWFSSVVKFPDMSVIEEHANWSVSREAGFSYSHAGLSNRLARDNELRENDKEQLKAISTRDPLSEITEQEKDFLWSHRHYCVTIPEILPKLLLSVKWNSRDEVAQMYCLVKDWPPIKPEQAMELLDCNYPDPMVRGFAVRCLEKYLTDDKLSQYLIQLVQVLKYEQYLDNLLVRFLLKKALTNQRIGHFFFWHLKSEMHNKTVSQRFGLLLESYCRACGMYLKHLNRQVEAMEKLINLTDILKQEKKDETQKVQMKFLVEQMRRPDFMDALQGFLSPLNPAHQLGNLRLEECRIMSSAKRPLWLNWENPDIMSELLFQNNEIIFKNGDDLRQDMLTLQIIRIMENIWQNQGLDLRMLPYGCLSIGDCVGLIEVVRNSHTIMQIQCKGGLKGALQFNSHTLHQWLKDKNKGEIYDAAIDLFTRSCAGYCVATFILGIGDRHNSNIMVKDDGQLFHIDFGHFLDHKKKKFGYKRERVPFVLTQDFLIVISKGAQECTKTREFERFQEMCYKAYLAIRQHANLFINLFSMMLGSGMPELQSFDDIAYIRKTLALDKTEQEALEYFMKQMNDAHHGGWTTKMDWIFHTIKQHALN
Sequence of p110α (P27986 whole entry partner): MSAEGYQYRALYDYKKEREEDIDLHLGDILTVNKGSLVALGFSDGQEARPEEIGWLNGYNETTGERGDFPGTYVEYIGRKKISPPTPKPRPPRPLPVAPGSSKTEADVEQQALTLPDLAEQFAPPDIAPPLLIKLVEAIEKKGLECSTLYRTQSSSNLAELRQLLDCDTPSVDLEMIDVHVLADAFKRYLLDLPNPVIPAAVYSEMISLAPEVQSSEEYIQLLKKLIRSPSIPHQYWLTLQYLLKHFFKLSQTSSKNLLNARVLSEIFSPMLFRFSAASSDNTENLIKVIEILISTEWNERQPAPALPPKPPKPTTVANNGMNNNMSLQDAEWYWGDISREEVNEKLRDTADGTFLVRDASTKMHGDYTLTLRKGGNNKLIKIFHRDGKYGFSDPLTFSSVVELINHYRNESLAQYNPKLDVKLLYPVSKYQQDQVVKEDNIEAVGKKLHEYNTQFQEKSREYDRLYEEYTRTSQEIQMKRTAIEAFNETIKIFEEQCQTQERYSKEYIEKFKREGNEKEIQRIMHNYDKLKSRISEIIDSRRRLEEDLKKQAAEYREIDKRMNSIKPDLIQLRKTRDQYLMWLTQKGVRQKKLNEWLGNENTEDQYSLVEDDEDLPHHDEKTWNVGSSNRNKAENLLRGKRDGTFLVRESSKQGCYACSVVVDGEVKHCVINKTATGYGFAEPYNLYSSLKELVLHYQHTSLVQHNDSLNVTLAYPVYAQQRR

Compound `O=c1cc(N2CCOCC2)[nH]c2c(-c3cn(-c4ccccc4)nn3)cccc12` [CL1, 2-morpholino-8-(1-phenyl-1h-1,2,3-triazol-4-yl)quinolin-4(1H)-one] yielded an IC50 of 0.73 µM. With `O=c1cc(N2CCOCC2)[nH]c2c(-c3cn(Cc4ccccc4)nn3)cccc12` [CL5, 8-(1-benzyl-1H-1,2,3-triazol-4-yl)-2-morpholinoquinolin-4(1H)-one], the IC50 came out at 0.26 µM. For `N#CCc1ccc(-n2cc(-c3cccc4c(=O)cc(N5CCOCC5)[nH]c34)nn2)cc1` [CL12, 2-(4-(4-(2-morpholino-4-oxo-1,4-dihydroquinolin-8-yl)-1H-1,2,3-triazol-1-yl)phenyl) acetonitrile], the IC50 turned out to be 0.1 µM. The compound `O=C(O)c1cccc(Cn2cc(-c3cccc4c(=O)cc(N5CCOCC5)[nH]c34)nn2)c1` [CL27e, 3-((4-(2-morpholino-4-oxo-1,4-dihydroquinolin-8-yl)-1H-1,2,3-triazol-1-yl)methyl)benzoic acid] displayed an IC50 of 0.02 µM.

As to `O=C(O)c1ccc(-n2cc(-c3cccc4c(=O)cc(N5CCOCC5)[nH]c34)nn2)cc1` [CL29a, 4-(4-(2-morpholino-4-oxo-1,4-dihydroquinolin-8-yl)-1H-1,2,3-triazol-1-yl)benzoic acid], half-maximal inhibition (IC50) required 0.32 µM.

Compound `O=C(O)CCCn1cc(-c2cccc3c(=O)cc(N4CCOCC4)[nH]c23)nn1` [CL55a, 4-(4-(2-morpholino-4-oxo-1,4-dihydroquinolin-8-yl)-1H-1,2,3-triazol-1-yl)butanoic acid] gave an IC50 of 0.1 µM. For the compound `O=C(O)c1cccc(-n2cc(-c3cccc4c(=O)cc(N5CCOCC5)[nH]c34)nn2)c1` [CL55b, 3-(4-(2-morpholino-4-oxo-1,4-dihydroquinolin-8-yl)-1H-1,2,3-triazol-1-yl)benzoic acid], the IC50 was determined as 0.1 µM. `O=C(O)CCCCn1cc(-c2cccc3c(=O)cc(N4CCOCC4)[nH]c23)nn1` [CL64a, 5-(4-(2-morpholino-4-oxo-1,4-dihydroquinolin-8-yl)-1H-1,2,3-triazol-1-yl)pentanoic acid] returned an IC50 of 0.1 µM. Turning to `O=C(NCc1ccccc1)c1cccc(Cn2cc(-c3cccc4c(=O)cc(N5CCOCC5)[nH]c34)nn2)c1` [CL129a, N-benzyl-3-((4-(2-morpholino-4-oxo-1,4-dihydroquinolin-8-yl)-1H-1,2,3-triazol-1-yl)methyl) benzamide], half-maximal inhibition (IC50) required 0.14 µM.

Take `Cc1cc(F)ccc1Oc1cccc2c(=O)cc(N3CCOCC3)[nH]c12` [TGX155, reference compound]: the IC50 was greater than 20 µM. On to `O=c1cc(N2CCOCC2)[nH]c2c(-c3cn(-c4ccccc4O)nn3)cccc12` [TP714, 8-(1-(2-hydroxyphenyl)-1H-1,2,3-triazol-4-yl)-2-morpholinoquinolin-4(1H)-one], for which the IC50 came to 0.26 µM.

What is called IC50 is the concentration at which inhibition is half-maximal. The low end stands for inhibition by little substance, the high end for a need for much substance.
